Reference: patent US6797861B2, “Seed shattering” (Bayer BioScience NV, priority 1995, dated 2004)

Experiments:
Format in all cases: in vivo, Brassica napus
[1] = system: endogenous ACC and IAA in pod tissues; assay: Endogenous phytohormone (ACC, IAA) concentrations in pod tissues; conditions: spray at 150 mg/l, 35 days after anthesis
Description: (§1) Brassica napus cv Fido plants were grown in an unheated greenhouse. At 12 days after germination plants were transferred to, and further grown in, 1000 cm^3 compost. Pods were collected at one week intervals from two to eight weeks after anthesis. The pods were taken from the base of the terminal one of the first three axillary racemes. The pods were separated into dehiscence zone, pod wall and seeds.
The samples were grinded with a mortar and pestle and then extracted for 16 hours at −20 C. in a total volume of 80% methanol. Purification and analysis of phytohormones was carried out essentially as described [Bialek and Cohen (1989), Plant Physiol. 90: 398; Prinsen et al. (1991), in: A Laboratory Guide for Cellular and Molecular Plant Biology. Ed. Negrutiu and Gharti-Chhetri. Birkhäuser Verlag, Basel/Boston/Berlin pp.175-185, pp.323-324; Chauvaux et al. (1993), J. Chromatogr. A 657: 337].
Different parts of the pods (pod wall, dehiscence zone and seeds) were screened for endogenous concentrations of the ethylene precursor 1-aminocyclopropane-1-carboxylic acid (ACC) and conjugates thereof as well as for indole-3-acetic acid (IAA) and conjugates thereof.
In a further experiment ethylene production was inhibited by treating the pods with aminoethoxyvinylglycine (AVG), a competitive inhibitor of the enzyme ACC-synthase. AVG was applied 28 days after anthesis at 500 mg/l. […]

[2] = system: pods (8% moisture) of oilseed rape cv Fido; assay: Cantilever bending test of pod opening force; conditions: plants sprayed
Description: as §1
In a further experiment ethylene production was inhibited by treating the pods with aminoethoxyvinylglycine (AVG), a competitive inhibitor of the enzyme ACC-synthase. AVG was applied 28 days after anthesis at 500 mg/l. […] Decreased endogenous ACC concentrations in both dehiscence zone and seeds of the treated pods correlated with the reduced ethylene production. […] A decrease in endogenous IAA content in the dehiscence zone preceding pod opening was also observed in these experiments both in control and in AVG-treated plants. […]
3) changes in the mechanical properties of the DZ and their seed shatter resistance by analysing the shatter resistance of individual pods. […] In yet another procedure, susceptibility to crack propagation is determined by friction measurement. In this case, the force generated due to friction between a wedge forced along the DZ is recorded and enables comparison of DZ tissues in selected, extreme examples of resistance.

Beta-Glucanase = assay: Beta-glucanase activity in the dehiscence zone; conditions: spray at 150 mg/l, 35 days after anthesis
Description: (§2) To examine the auxin involvement in pod shattering, the synthetic auxin 4-chlorophenoxyacetic acid (4CPA) was used to manipulate auxin levels. 4CPA was applied 35 days after anthesis as a spray at 150 mg/l in order to artificially keep auxin concentration at a high level during the entire period. […] No effect was observed on the endogenous phytohormone concentrations.

[3] = system: pods of oilseed rape cv Fido; assay: Pod wall senescence and pod shatter tendency of treated plants; conditions: spray at 150 mg/l, 35 days after anthesis
Description: as §1
In a further experiment ethylene production was inhibited by treating the pods with aminoethoxyvinylglycine (AVG), a competitive inhibitor of the enzyme ACC-synthase. AVG was applied 28 days after anthesis at 500 mg/l. […] Decreased endogenous ACC concentrations in both dehiscence zone and seeds of the treated pods correlated with the reduced ethylene production. […] A decrease in endogenous IAA content in the dehiscence zone preceding pod opening was also observed in these experiments both in control and in AVG-treated plants.
as §2

O=C(O)COc1ccc(Cl)cc1 [4CPA, 4-chlorophenoxyacetic acid]
effect on endogenous phytohormone concentrations [1]: No effect
Force needed to initiate crack (pod opening) [2]: 194.9 10^−3N
Force needed to propagate crack (pod opening) [2]: 222.6 10^−3N
Beta-Glucanase activity in the dehiscence zone (Beta-Glucanase): markedly decreased
delay of pod wall senescence [3]: about two
pod shatter tendency [3]: distinct retardation
